Measured values from paper PMC11545999, “Angular-Substituted [1,4]Thiazino[3,4-a]Isoquinolines: Biological Evaluation and In Silico Studies on DPP-IV Inhibition” (International Journal of Molecular Sciences, 2024).

Target: T1, DPP-IV (Homo sapiens, UniProt P27487)
T1 construct: gene DPP4
Assay: fluorogenic AMC substrate cleavage assay (SensoLyte AMC DPP-IV Assay Kit)
Type: biochemical

T1 sequence (P27487 39-766): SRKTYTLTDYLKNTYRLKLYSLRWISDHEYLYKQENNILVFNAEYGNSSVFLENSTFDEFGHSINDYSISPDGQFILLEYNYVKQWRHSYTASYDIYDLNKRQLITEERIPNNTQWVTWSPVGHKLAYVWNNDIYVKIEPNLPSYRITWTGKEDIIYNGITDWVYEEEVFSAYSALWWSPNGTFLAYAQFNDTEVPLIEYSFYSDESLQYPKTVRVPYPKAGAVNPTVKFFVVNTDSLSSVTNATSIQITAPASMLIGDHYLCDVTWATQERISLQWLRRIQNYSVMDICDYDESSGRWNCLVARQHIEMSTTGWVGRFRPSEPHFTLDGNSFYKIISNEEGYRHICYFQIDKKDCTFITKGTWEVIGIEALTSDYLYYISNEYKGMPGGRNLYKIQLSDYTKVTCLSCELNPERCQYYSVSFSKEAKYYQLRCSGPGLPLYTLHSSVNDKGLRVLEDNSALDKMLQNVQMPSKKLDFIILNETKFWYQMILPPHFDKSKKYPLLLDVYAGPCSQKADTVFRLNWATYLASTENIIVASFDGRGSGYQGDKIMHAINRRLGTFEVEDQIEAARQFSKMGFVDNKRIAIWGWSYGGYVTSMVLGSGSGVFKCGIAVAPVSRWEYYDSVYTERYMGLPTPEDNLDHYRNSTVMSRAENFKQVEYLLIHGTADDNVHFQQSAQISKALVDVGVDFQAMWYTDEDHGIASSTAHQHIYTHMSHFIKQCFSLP

In order of rising IC50:
1. COc1cc2c(cc1OC)[C@@]1(c3ccc(F)cc3)[C@@H](C(=O)O)SCC(=O)N1CC2 (relative stereo) [4g]  0.35 µM
2. COc1cc2c(cc1OC)[C@@]1(c3ccc(C(F)(F)F)cc3)[C@@H](C(=O)O)SCC(=O)N1CC2 (relative stereo) [4f]  15.9 µM
3. COc1cc2c(cc1OC)C1C(C(=O)O)SCC(=O)N1CC2 (stereo not drawn) [4a]  41.1 µM
